Experimental data from US12391674B2, “Heterocyclic compounds for the treatment of epilepsy” (OTSUKA PHARMACEUTICAL CO., LTD., priority 2018, dated 2025).
Structures can show the parent of a compound that is named as a salt.

What follows are molecules tested on ICR mice (assay: Rotarod test (motor coordination)). Settings: oral, dose 5 mg/kg, rotarod 1 hour after administration.
Type: in vivo, mouse
Method: This test is performed to evaluate the effect of the compound on the motor coordination. In this test example, the example compounds shown in Table 4 below were used as test compounds. Male ICR mice (Japan SLC, Inc., 5-6 weeks, 8 per group) were trained to remain on a fixed speed (15 rpm) rotating rod of rotarod apparatus (Muromachi Kikai Co., Ltd.) for 2 minutes. […] After 1 hour of oral administration, the mice were again placed on the rod accelerated from 4 rpm to 40 rpm over 5 minutes and the latency to fall off the rod was recorded for 200 seconds. The falling latency of the compound administration group was calculated as a relative value relative to the average value of the falling latency in the solvent administration group. Here, a coordination disorder of 25% or less was expressed as “A”, and a coordination disorder of more than 25% and 50% or less was expressed as “B”.

SMILES	Motor dysfunction
COc1ccc(-c2cnc(Oc3ccccc3)nc2)nn1 [Example 1, 3-Methoxy-6-(2-Phenoxypyrimidin-5-Yl)Pyridazine]	A (a coordination disorder of 25% or less)
COc1ccc(-c2cnc(Oc3cccc(F)c3)nc2)nn1 [Example 4, 3-(2-(3-Fluorophenoxy)Pyrimidin-5-Yl)-6-Methoxypyridazine]	A (a coordination disorder of 25% or less)

Same assay, conditions: oral, dose 10 mg/kg, rotarod 1 hour after administration

SMILES	Motor dysfunction
Cc1ccc(-c2cnc(Oc3ccccc3)nc2)nn1 [Example 2]	A (a coordination disorder of 25% or less)
COc1ccc(-c2cnc(Oc3ccccc3F)nc2)nn1 [Example 3]	A (a coordination disorder of 25% or less)

Same assay, conditions: oral, dose 30 mg/kg, rotarod 1 hour after administration

SMILES	Motor dysfunction
O=C1CCN(c2ccc(Oc3cccc(OC(F)(F)F)c3)cc2)C(=O)N1 [Example 306]	A (a coordination disorder of 25% or less)

What follows are molecules tested on DBA/2 mice (assay: Audiogenic seizure model). Settings: Mus musculus; DBA/2 mice, oral, dose 5 mg/kg, auditory stimulation 1 hour after administration; read-out: Seizure suppression.
Type: in vivo
Method: The animal model used in this test is a phenotype model for partial seizure (including secondary generalized seizure) and generalized tonic-clonic seizure, and has high clinical predictability. This test was performed in accordance with the report of De Sarro et al (Br J Pharmacol. 1988 February; 93 (2): 247-56. Anticonvulsant effects of some calcium entry blockers in DBA/2 mice. De Sarro G B, Meldrum B S, Nistico G.).
In this test example, the example compounds shown in Tables 3-1 to 3-3 below were used as test compounds.
The test compounds were suspended in 5% gum arabic/distilled water (w/v), and administered by forced oral administration to male and female DBA/2 mice (Japan SLC, Inc., 3 weeks old, 8 per group) at a dose of 30 mg/kg. After one hour of the oral administration of the test compound, each mouse was placed in a transparent acrylic cylinder 30 cm high and 23 cm in diameter, and 30 seconds were allowed for habituation. Then, they were exposed to auditory stimulation (12.6 kHz, 100-110 dB) for 1 minute or until a tonic seizure occurred.
The seizure response was assessed using the following scale, 0: no seizure, 1: wild running, 2: clonic seizure, 3: tonic seizure and 4: respiratory arrest. The maximum response was recorded as the seizure severity score.
The seizure suppression rate for each compound administration group was calculated according to the following formula.
Here, a rate of seizure suppression of 90% or more was expressed as “A”, a rate of seizure suppression of 70% or more and less than 90% was expressed as “B”, and a rate of seizure suppression of 50% or more and less than 70% was expressed as “C”.

SMILES	inhibition in vivo at 5 mg/kg
COc1ccc(-c2cnc(Oc3ccccc3)nc2)nn1 [Example 1, 3-Methoxy-6-(2-Phenoxypyrimidin-5-Yl)Pyridazine]	> 90%
COc1ccc(-c2cnc(Oc3ccccc3F)nc2)nn1 [Example 3]	> 90%
COc1ccc(-c2cnc(Oc3cccc(F)c3)nc2)nn1 [Example 4, 3-(2-(3-Fluorophenoxy)Pyrimidin-5-Yl)-6-Methoxypyridazine]	> 90%
O=C1Cc2cc(-c3cnc(Oc4ccccc4F)nc3)ccc2N1 [Example 264]	> 90%

Same assay, conditions: Mus musculus; DBA/2 mice, oral, dose 30 mg/kg, auditory stimulation 1 hour after administration; read-out: Seizure suppression

SMILES	inhibition in vivo at 30 mg/kg
Cc1ccc(-c2cnc(Oc3ccccc3)nc2)nn1 [Example 2]	> 90%
c1ccc(Oc2ncc(-c3ccc4scnc4c3)cn2)cc1 [Example 241]	> 90%
c1ccc(Oc2ncc(-c3ccc4cccnc4c3)cn2)cc1 [Example 244]	> 90%
O=C1CCc2ccc(-c3cnc(Oc4ccccc4)nc3)cc2N1 [Example 246]	> 90%
O=C1NCCc2cc(-c3cnc(Oc4ccccc4)nc3)ccc21 [Example 247]	> 90%
c1ccc(Oc2ncc(-c3cccc4ccncc34)cn2)cc1 [Example 249]	> 90%
c1ccc(Oc2ncc(-c3ccc4ncccc4c3)cn2)cc1 [Example 250]	> 90%
c1ccc(Oc2ncc(-c3ccc4cnccc4c3)cn2)cc1 [Example 251]	> 90%
c1ccc(Oc2ncc(-c3ccc4ccncc4c3)cn2)cc1 [Example 252]	> 90%
c1ccc(Oc2ncc(-c3ccc4nccnc4c3)cn2)cc1 [Example 253]	> 90%
O=c1[nH]cnc2ccc(-c3cnc(Oc4ccccc4)nc3)cc12 [Example 254]	> 90%
c1ccc(Oc2ncc(-c3ccc4ncncc4c3)cn2)cc1 [Example 255]	> 90%
c1ccc(Oc2ncc(-c3ccc4[nH]cnc4c3)cn2)cc1 [Example 257, 5-(2-Phenoxypyrimidin-5-Yl)-1H-Benzo[d]Imidazole Oxalate]	> 90%
Cn1ccc2cc(-c3cnc(Oc4ccccc4)nc3)ccc21 [Example 260]	> 90%
Nc1nccc2c(-c3cnc(Oc4ccccc4)nc3)cccc12 [Example 261]	> 90%
Cn1ccc2c(-c3cnc(Oc4ccccc4)nc3)cccc21 [Example 263]	> 90%
O=C1Cc2cc(-c3cnc(Oc4ccccc4F)nc3)ccc2N1 [Example 264]	> 90%
O=C1Cc2cc(-c3cnc(Oc4cccc(F)c4)nc3)ccc2N1 [Example 265]	> 90%
O=C1Cc2cc(-c3cnc(Oc4ccc(F)cc4)nc3)ccc2N1 [Example 266]	> 90%
Clc1cc2c(-c3cnc(Oc4ccccc4)nc3)cccc2cn1 [Example 268]	> 90%

SMILES	inhibition in vivo at 30 mg/kg
O=C1Cc2ccc(-c3cnc(Oc4ccccc4F)nc3)cc2N1 [Example 269]	> 90%
O=C1CCc2cc(-c3cnc(Oc4ccccc4F)nc3)ccc2N1 [Example 270]	> 90%
O=C1Nc2ccc(-c3cnc(Oc4ccccc4)nc3)cc2C1=O [Example 271]	> 90%
O=C1Cc2c(cccc2-c2cnc(Oc3ccccc3)nc2)N1 [Example 272]	> 90%
COc1nc(Oc2ccccc2)ncc1-c1cccc2c1CC(=O)N2 [Example 273]	> 90%
COc1nc(Oc2ccccc2)ncc1-c1ccc2c(c1)CC(=O)N2 [Example 274]	> 90%
Cn1ncc2ccc(-c3cnc(Oc4ccccc4F)nc3)nc21 [Example 276]	> 90%
Cn1ncc2ccc(-c3cnc(Oc4cccc(F)c4)nc3)nc21 [Example 277]	> 90%
Cn1ncc2ccc(-c3cnc(Oc4ccc(F)cc4)nc3)nc21 [Example 278]	> 90%
Fc1ccccc1Oc1ncc(-c2ccc3nnc(C(F)(F)F)n3c2)cn1 [Example 280]	> 90%
Fc1cccc(Oc2ncc(-c3ccc4nnc(C(F)(F)F)n4c3)cn2)c1 [Example 281]	> 90%
Fc1ccc(Oc2ncc(-c3ccc4nnc(C(F)(F)F)n4c3)cn2)cc1 [Example 282]	> 90%
Fc1ccccc1Oc1ncc(-c2ccc3cnc(C(F)(F)F)n3c2)cn1 [Example 286]	> 90%
Fc1cccc(Oc2ncc(-c3ccc4cnc(C(F)(F)F)n4c3)cn2)c1 [Example 287]	> 90%
Fc1ccc(Oc2ncc(-c3ccc4cnc(C(F)(F)F)n4c3)cn2)cc1 [Example 288]	> 90%
Fc1ccccc1Oc1ncc(-c2ccc3nncn3n2)cn1 [Example 290]	> 90%
Fc1cccc(Oc2ncc(-c3ccc4nncn4n3)cn2)c1 [Example 291]	> 90%
Fc1ccc(Oc2ncc(-c3ccc4nncn4n3)cn2)cc1 [Example 292]	> 90%
FC(F)(F)c1cccc(-c2cnc(Oc3ccccc3)nc2)n1 [Example 301]	> 90%
CN1C(=O)CCN(c2ccc(Oc3cccc(F)c3)cc2)C1=O [Example 308, 1-(4-(3-Fluorophenoxy)Phenyl)-3-Methyldihydropyrimidine-2,4 (1H,3H)-Dione]	50 to 70%

SMILES	inhibition in vivo at 30 mg/kg
O=C1CCN(c2ccc(Oc3ccc(F)cc3)cc2)C(=O)N1 [Example 310]	50 to 70%
O=C1CCN(c2cccc(Oc3ccc(F)cc3)c2)C(=O)N1 [Example 315]	70 to 90%
O=C1CCN(c2ccc(Oc3ccc(S(F)(F)(F)(F)F)cc3)cc2)C(=O)N1 [Example 317]	50 to 70%
O=C1CCN(c2ccc(Oc3cccnc3)cc2)C(=O)N1 [Example 318]	50 to 70%
O=C1CCN(c2ccc(OC(F)(F)F)cc2)C(=O)N1 [Example 319]	50 to 70%
O=C1CCN(c2ccc(Oc3cccc(F)n3)cc2)C(=O)N1 [Example 321, 1-[4-(6-Fluoropyridin-2-Yloxy)Phenyl]Dihydropyrimidine-2,4 (1H,3H)-Dione]	50 to 70%
O=c1ccn(-c2ccc(Oc3ccccc3)cc2)c(=O)[nH]1 [Example 322, 1-(4-Phenoxyphenyl)Pyrimidine-2,4 (1H,3H)-Dione]	50 to 70%
Cc1cc(Oc2ccccc2)ccc1N1CCC(=O)NC1=O [Example 324]	50 to 70%
Cc1nc(Oc2ccccc2)ccc1N1CCC(=O)NC1=O [Example 326]	50 to 70%
O=C1CCN(c2ccc(-c3ccccc3)cc2)C(=O)N1 [Example 327, 1-((1,1′-Biphenyl)-4-Yl)Dihydropyrimidine-2,4 (1H,3H)-Dione]	50 to 70%
O=C1CCN(c2cc(F)c(Oc3ccccc3)c(F)c2)C(=O)N1 [Example 330]	50 to 70%
Cc1cc(Oc2cccc(F)c2)ccc1N1CCC(=O)NC1=O [Example 334]	50 to 70%
Cc1cc(Oc2cccc(C(F)(F)F)c2)ccc1N1CCC(=O)NC1=O [Example 335]	70 to 90%
O=C1CCN(c2ccc(Cc3ccc(F)cc3)cc2)C(=O)N1 [Example 338]	50 to 70%
O=C1CCN(c2ccc(Cc3cccc(OC(F)(F)F)c3)cc2)C(=O)N1 [Example 339]	70 to 90%
O=C1CCN(c2ccc(Cc3cccc(C(F)(F)F)c3)cc2)C(=O)N1 [Example 341]	50 to 70%
O=C1CCN(c2ccc(Cc3ccc(C(F)(F)F)cc3)cc2)C(=O)N1 [Example 342]	50 to 70%
O=C1CCN(c2ccc(Oc3cc(F)cc(F)c3)cc2)C(=O)N1 [Example 344]	50 to 70%
O=C1CCN(c2ccc(Oc3cccc(F)c3)c3ccccc23)C(=O)N1 [Example 345]	50 to 70%
O=c1ccn(-c2ccc(Oc3ccccc3)nn2)c(=O)[nH]1 [Example 346, 1-(6-Phenoxypyridazin-3-Yl)Pyrimidine-2,4 (1H,3H)-Dione]	50 to 70%
